What was measured:
[1] = target: MAP kinase-activated protein kinase 2 (Homo sapiens) (UniProt P49137); experiment: Inhibition of MAPKAPK2 (unknown origin) at 100 nM
[2] = target: Hepatocyte growth factor receptor (Homo sapiens) (UniProt P08581); experiment: Inhibition of MET (unknown origin) at 100 nM
[3] = target: Platelet-derived growth factor receptor beta (Homo sapiens) (UniProt P09619); experiment: Inhibition of PDGFRbeta (unknown origin) at 100 nM
Homo sapiens = species on record: Homo sapiens; experiment: Inhibition of PKA (unknown origin) at 100 nM
[4] = target: 5'-AMP-activated protein kinase catalytic subunit alpha-1 (Homo sapiens) (UniProt Q13131); experiment: Inhibition of PRKAA1 (unknown origin) at 100 nM
[5] = tested on: RAF proto-oncogene serine/threonine-protein kinase (Homo sapiens), P04049 [Y340D,Y341D]; experiment: Inhibition of RAF1 Y340D/Y341D double mutant (unknown origin) at 100 nM
[6] = target: Rho-associated protein kinase 1 (Homo sapiens) (UniProt Q13464); experiment: Inhibition of ROCK1 (unknown origin) at 100 nM
TAK1/TAB1 (Homo sapiens) = TAK1/TAB1 (Homo sapiens) (UniProt Q15750+O43318); experiment: Inhibition of TAK1-TAB1 (unknown origin) at 100 nM; type: protein-complex assay
[7] = target: Serine/threonine-protein kinase TBK1 (Homo sapiens) (UniProt Q9UHD2); experiment: Inhibition of TBK1 (unknown origin) at 100 nM
[8] = target: Non-receptor tyrosine-protein kinase TYK2 (Homo sapiens) (UniProt P29597); experiment: Inhibition of TYK2 (unknown origin) at 100 nM
[9] = target: Tyrosine-protein kinase ZAP-70 (Homo sapiens) (UniProt P43403); experiment: Inhibition of ZAP70 (unknown origin) at 100 nM
[10] = target: Mitogen-activated protein kinase 14 (Homo sapiens) (UniProt Q16539); experiment: Inhibition of p38alpha (unknown origin) by direct binding assay at 100 nM
Mitogen-activated protein kinase 14 (Homo sapiens), sequence (Q16539 whole entry): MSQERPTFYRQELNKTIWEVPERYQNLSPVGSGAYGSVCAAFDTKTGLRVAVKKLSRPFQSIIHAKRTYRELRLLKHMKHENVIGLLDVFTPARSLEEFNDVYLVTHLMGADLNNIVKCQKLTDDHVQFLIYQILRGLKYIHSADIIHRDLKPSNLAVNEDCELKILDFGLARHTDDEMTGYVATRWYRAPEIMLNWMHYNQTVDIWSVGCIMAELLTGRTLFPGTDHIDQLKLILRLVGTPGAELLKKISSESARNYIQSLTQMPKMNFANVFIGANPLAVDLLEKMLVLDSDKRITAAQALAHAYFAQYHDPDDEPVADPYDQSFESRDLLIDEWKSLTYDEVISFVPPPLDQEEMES

[11] = target: Ribosomal protein S6 kinase beta-1 (Homo sapiens) (UniProt P23443); experiment: Inhibition of p70S6K(unknown origin) at 100 nM
[12] = Plasma clearance in iv dosed rat; type: ADME, organism-based
[13] = target: Epidermal growth factor receptor (Homo sapiens, UniProt P00533, L858R/T790M); experiment: Inhibition of EGFR T790M/L858R mutant (unknown origin); type: protein assay
[14] = target: Epidermal growth factor receptor (Homo sapiens, UniProt P00533, L858R); experiment: Inhibition of EGFR L858R mutant (unknown origin); type: protein assay
Epidermal growth factor receptor (Homo sapiens, UniProt P00533, L858R), sequence (P00533 25-1210 L858R limits assumed): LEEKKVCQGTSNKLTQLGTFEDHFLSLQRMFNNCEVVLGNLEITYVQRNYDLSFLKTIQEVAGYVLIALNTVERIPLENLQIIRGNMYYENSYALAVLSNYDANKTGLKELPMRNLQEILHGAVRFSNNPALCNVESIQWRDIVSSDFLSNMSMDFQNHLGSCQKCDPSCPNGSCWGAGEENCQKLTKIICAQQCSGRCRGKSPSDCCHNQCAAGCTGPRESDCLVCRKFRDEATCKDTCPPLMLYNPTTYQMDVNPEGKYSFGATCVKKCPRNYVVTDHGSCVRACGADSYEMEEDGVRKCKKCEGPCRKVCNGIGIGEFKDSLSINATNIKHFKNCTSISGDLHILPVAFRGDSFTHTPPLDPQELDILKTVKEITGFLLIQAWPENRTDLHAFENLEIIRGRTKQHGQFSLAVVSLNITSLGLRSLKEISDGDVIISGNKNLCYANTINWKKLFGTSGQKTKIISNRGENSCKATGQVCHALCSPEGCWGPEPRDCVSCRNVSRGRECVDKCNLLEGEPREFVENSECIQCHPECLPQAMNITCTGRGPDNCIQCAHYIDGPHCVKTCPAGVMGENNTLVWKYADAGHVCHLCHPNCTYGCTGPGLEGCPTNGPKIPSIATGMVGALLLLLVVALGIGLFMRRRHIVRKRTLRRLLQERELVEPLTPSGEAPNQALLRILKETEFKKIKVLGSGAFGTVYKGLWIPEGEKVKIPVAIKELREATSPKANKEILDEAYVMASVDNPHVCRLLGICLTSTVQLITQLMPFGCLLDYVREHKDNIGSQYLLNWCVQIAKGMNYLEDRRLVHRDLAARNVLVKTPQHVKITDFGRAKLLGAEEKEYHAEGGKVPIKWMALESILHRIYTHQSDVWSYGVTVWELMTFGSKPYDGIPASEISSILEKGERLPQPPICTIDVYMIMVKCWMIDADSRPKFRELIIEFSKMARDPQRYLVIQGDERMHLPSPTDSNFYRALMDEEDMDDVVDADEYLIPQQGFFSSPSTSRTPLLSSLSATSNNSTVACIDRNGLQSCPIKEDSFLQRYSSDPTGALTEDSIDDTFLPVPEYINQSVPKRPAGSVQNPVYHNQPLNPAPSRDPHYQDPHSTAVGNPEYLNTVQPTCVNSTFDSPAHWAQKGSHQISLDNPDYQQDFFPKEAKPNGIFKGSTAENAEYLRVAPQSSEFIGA

[15] = target: T1, Epidermal growth factor receptor (Homo sapiens, UniProt P00533); experiment: Inhibition of EGFR deletion (746 to 750 residues) mutant (unknown origin); type: protein assay
Target sequence in this assay (P00533 25-1210 limits assumed, stated change not applied): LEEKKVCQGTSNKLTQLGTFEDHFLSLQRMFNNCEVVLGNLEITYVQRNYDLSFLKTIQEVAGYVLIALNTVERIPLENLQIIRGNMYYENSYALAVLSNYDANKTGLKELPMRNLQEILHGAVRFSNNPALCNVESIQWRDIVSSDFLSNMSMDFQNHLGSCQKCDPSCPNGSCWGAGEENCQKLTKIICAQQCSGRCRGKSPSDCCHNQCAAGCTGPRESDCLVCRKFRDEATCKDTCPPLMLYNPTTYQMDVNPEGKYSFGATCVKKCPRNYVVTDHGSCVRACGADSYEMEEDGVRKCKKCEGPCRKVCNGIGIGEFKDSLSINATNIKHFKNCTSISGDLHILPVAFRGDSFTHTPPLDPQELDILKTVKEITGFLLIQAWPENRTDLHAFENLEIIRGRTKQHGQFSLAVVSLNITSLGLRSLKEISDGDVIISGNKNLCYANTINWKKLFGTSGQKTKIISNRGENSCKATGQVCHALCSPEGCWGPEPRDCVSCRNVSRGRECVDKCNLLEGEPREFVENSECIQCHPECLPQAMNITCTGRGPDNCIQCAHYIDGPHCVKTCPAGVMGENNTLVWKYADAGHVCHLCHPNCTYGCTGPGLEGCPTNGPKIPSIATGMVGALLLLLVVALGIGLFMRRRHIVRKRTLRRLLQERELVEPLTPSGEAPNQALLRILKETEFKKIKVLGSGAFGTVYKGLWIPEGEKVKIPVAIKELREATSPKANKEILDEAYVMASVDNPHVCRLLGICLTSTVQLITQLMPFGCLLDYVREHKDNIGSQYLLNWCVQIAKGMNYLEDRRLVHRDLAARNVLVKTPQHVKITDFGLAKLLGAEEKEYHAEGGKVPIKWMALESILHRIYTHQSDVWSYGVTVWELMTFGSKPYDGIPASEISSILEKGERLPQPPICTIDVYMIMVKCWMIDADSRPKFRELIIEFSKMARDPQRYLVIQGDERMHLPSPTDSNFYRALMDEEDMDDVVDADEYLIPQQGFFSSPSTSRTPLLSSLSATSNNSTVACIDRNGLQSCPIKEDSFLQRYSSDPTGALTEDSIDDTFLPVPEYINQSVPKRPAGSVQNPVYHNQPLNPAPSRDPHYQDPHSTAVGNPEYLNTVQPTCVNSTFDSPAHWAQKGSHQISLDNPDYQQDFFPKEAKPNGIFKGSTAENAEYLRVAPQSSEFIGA

[16] = target: T1, Epidermal growth factor receptor; experiment: Inhibition of EGFR T790M/deletion (746 to 750 residues) mutant (unknown origin); type: protein assay
Target sequence in this assay (P00533 25-1210 limits assumed, stated change not applied): as above

[17] = target: RAC-alpha serine/threonine-protein kinase (Homo sapiens) (UniProt P31749); experiment: Inhibition of AKT1 (unknown origin) at 100 nM
[18] = target: Aurora kinase B (Homo sapiens) (UniProt Q96GD4); experiment: Inhibition of Aurora B (unknown origin) at 100 nM
[19] = target: Tyrosine-protein kinase BTK (Homo sapiens) (UniProt Q06187); experiment: Inhibition of BTK (unknown origin) at 100 nM
[20] = target: Casein kinase I isoform alpha (Homo sapiens) (UniProt P48729); experiment: Inhibition of CK1alpha1 (unknown origin) at 100 nM
[21] = target: Macrophage colony-stimulating factor 1 receptor (Homo sapiens) (UniProt P07333); experiment: Inhibition of CSF1R (unknown origin) at 100 nM
[22] = target: Mitogen-activated protein kinase kinase kinase 8 (Homo sapiens) (UniProt P41279); experiment: Inhibition of COT (unknown origin) at 100 nM
[23] = target: T1, Epidermal growth factor receptor; experiment: Inhibition of EGFR (unknown origin) at 100 nM
[24] = tested on: Epidermal growth factor receptor (Homo sapiens), P00533 [L861Q]; experiment: Inhibition of EGFR L861Q mutant (unknown origin) at 100 nM; type: protein assay
[25] = tested on: Epidermal growth factor receptor (Homo sapiens), P00533 [T790M]; experiment: Inhibition of EGFR T790M mutant (unknown origin) at 100 nM; type: protein assay
[26] = tested on: Epidermal growth factor receptor (Homo sapiens), P00533 [L858R,T790M]; experiment: Inhibition of EGFR T790M/L858R double mutant (unknown origin) at 100 nM; type: protein assay
[27] = target: Mitogen-activated protein kinase 1 (Homo sapiens) (UniProt P28482); experiment: Inhibition of ERK2 (unknown origin) at 100 nM
Mitogen-activated protein kinase 1 (Homo sapiens), sequence (P28482 whole entry): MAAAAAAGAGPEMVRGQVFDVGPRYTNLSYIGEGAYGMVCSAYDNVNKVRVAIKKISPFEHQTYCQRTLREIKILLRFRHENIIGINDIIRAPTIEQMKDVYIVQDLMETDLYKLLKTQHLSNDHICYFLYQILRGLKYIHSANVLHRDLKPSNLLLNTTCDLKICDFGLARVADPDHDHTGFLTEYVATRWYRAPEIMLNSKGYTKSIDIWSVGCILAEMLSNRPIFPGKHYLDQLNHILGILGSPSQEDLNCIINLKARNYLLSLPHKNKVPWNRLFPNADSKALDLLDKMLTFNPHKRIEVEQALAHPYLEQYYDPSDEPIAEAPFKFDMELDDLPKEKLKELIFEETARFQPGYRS

[28] = target: Protein-tyrosine kinase 2-beta (Homo sapiens) (UniProt Q14289); experiment: Inhibition of FAK2 (unknown origin) at 100 nM
[29] = target: Receptor-type tyrosine-protein kinase FLT3 (Homo sapiens) (UniProt P36888); experiment: Inhibition of FLT3 (unknown origin) at 100 nM
[30] = target: Glycogen synthase kinase-3 beta (Homo sapiens) (UniProt P49841); experiment: Inhibition of GSK3beta (unknown origin) at 100 nM
[31] = target: Inhibitor of nuclear factor kappa-B kinase subunit alpha (Homo sapiens) (UniProt O15111); experiment: Inhibition of IKKalpha (unknown origin) at 100 nM
Inhibitor of nuclear factor kappa-B kinase subunit alpha (Homo sapiens), sequence (O15111 whole entry): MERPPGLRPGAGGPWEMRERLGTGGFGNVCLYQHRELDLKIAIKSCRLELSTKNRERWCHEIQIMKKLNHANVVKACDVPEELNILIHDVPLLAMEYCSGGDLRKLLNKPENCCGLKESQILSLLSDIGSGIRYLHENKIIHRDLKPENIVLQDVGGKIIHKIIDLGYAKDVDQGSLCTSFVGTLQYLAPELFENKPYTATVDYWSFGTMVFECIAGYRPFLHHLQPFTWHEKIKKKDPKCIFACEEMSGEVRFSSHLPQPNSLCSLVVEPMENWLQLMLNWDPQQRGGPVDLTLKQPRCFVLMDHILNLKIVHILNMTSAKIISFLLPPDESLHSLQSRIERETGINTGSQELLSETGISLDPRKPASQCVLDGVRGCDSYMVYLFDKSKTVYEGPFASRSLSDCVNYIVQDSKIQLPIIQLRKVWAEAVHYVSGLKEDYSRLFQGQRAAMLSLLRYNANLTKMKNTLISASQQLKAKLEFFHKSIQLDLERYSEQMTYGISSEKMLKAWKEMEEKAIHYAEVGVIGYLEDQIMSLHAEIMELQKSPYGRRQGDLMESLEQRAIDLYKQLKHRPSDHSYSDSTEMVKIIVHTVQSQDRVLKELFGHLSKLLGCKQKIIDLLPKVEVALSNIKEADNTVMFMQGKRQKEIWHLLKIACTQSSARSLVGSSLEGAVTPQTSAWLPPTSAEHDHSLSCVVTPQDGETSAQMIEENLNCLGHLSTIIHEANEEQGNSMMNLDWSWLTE

[32] = target: Inhibitor of nuclear factor kappa-B kinase subunit beta (Homo sapiens) (UniProt O14920); experiment: Inhibition of IKKbeta (unknown origin) at 100 nM
Inhibitor of nuclear factor kappa-B kinase subunit beta (Homo sapiens), sequence (O14920 whole entry): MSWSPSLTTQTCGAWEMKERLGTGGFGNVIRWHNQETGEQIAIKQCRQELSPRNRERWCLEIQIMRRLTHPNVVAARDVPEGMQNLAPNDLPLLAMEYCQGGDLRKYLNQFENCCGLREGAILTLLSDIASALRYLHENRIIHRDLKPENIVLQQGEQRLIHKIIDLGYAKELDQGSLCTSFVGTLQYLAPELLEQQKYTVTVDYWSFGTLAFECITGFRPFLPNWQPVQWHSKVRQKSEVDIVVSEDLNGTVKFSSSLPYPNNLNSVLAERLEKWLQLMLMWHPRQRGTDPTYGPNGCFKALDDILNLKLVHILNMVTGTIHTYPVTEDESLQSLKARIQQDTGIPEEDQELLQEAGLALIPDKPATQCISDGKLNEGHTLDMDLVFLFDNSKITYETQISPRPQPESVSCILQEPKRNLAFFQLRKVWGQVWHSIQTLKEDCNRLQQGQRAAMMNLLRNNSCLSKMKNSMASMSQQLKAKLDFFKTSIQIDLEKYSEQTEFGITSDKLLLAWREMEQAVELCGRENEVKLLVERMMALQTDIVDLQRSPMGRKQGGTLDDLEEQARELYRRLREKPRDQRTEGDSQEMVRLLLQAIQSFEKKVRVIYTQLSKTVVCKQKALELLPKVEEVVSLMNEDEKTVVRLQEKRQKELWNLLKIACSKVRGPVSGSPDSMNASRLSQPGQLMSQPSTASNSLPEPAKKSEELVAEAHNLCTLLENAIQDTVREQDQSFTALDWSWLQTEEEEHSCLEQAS

[33] = target: Tyrosine-protein kinase ITK/TSK (Homo sapiens) (UniProt Q08881); experiment: Inhibition of ITK (unknown origin) at 100 nM
[34] = target: Insulin receptor (Homo sapiens) (UniProt P06213); experiment: Inhibition of INSR (unknown origin) at 100 nM
[35] = target: Mitogen-activated protein kinase 8 (Homo sapiens) (UniProt P45983); experiment: Inhibition of JNK1 alpha1 (unknown origin) at 100 nM
Mitogen-activated protein kinase 8 (Homo sapiens), sequence (P45983 whole entry): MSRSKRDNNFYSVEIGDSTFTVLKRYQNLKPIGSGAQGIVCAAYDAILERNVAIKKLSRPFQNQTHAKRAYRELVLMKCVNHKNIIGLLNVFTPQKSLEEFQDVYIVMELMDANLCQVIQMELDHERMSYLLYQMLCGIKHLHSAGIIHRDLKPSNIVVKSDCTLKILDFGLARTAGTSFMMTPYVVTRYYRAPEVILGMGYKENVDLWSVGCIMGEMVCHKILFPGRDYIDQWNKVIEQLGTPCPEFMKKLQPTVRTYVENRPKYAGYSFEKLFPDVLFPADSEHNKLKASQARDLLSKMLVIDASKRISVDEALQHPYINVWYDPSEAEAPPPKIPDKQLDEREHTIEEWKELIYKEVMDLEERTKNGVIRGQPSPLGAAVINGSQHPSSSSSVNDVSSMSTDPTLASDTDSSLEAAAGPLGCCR

[36] = target: Vascular endothelial growth factor receptor 2 (Homo sapiens) (UniProt P35968); experiment: Inhibition of KDR (unknown origin) at 100 nM
[37] = target: Leucine-rich repeat serine/threonine-protein kinase 2 (Homo sapiens) (UniProt Q5S007); experiment: Inhibition of LRRK2 (unknown origin) at 100 nM
[38] = target: Tyrosine-protein kinase Lyn (Homo sapiens) (UniProt P07948); experiment: Inhibition of LYN (unknown origin) at 100 nM
[39] = target: Serine/threonine-protein kinase Chk1 (Homo sapiens) (UniProt O14757); experiment: Inhibition of CHK1 (unknown origin) at 100 nM

`CC1(C)OCc2c(Nc3n[nH]c4c(Cl)cccc34)nc(-c3cn[nH]c3)nc21` gave an inhibition [1] of 2.1%, an inhibition [2] of 7.7% and an inhibition [3] of 10.8%. The inhibition (Homo sapiens) was 88.7%, the inhibition [4] was 27.8% and the inhibition [5] was 25.3%. It also gave an inhibition [6] of 2.3%, an inhibition (TAK1/TAB1 (Homo sapiens)) of 3.1% and an inhibition [7] of 9.4%. For the same compound, the inhibition [8] was 2%, the inhibition [9] was 3.5% and the inhibition [10] was 22.4%. For the same compound, the inhibition [11] was 10.4%, the clearance [12] was 74 mL/min/kg and the Ki [13] was 2 nM. The Ki [14] was 1.3 nM, the Ki [15] was 0.4 nM and the Ki [16] was 1.3 nM. The inhibition [17] was 11.1%, the inhibition [18] was 16.4% and the inhibition [19] was 17%. For the same compound, the inhibition [20] was -3.3%, the inhibition [21] was 19.1% and the inhibition [22] was 7.4%. It also gave an inhibition [23] of 93.7%, an inhibition [24] of 95.2% and an inhibition [25] of 91.3%. For the same compound, the inhibition [26] was 91.5%, the inhibition [27] was -3.5% and the inhibition [28] was 9.1%. It also gave an inhibition [29] of 67.3%, an inhibition [30] of 61% and an inhibition [31] of -1.8%. It also gave an inhibition [32] of 7%, an inhibition [33] of 2% and an inhibition [34] of 2%. It also gave an inhibition [35] of 4.1%, an inhibition [36] of 99.3% and an inhibition [37] of 7.5%. The inhibition [38] was 94% and the inhibition [39] was 5.3%.
`CC1(C)OCc2c(Nc3n[nH]c4ccccc34)nc(-c3cn[nH]c3)nc21` gave an inhibition [1] of 1.9%, an inhibition [2] of 7.9% and an inhibition [3] of 35.2%. It also gave an inhibition (Homo sapiens) of 78.8%, an inhibition [4] of -3.1% and an inhibition [5] of 16.6%. It also gave an inhibition [6] of 0.8%, an inhibition (TAK1/TAB1 (Homo sapiens)) of 8.9% and an inhibition [7] of 7.9%. For the same compound, the inhibition [8] was 4.9%, the inhibition [9] was 9.2% and the inhibition [10] was 20.6%. For the same compound, the inhibition [11] was 4.3%, the clearance [12] was 86 mL/min/kg and the Ki [13] was 2 nM. The Ki [14] was 0.5 nM, the Ki [15] was 0.2 nM and the Ki [16] was 1.6 nM. The inhibition [17] was 3.5%, the inhibition [18] was -2.5% and the inhibition [19] was 19.8%. For the same compound, the inhibition [20] was 6.9%, the inhibition [21] was 17.5% and the inhibition [22] was 9.1%. The inhibition [23] was 97.4%, the inhibition [24] was 99.7% and the inhibition [25] was 95.2%. For the same compound, the inhibition [26] was 95.9%, the inhibition [27] was 1.2% and the inhibition [28] was 9.7%. It also gave an inhibition [29] of 16.5%, an inhibition [30] of 41.9% and an inhibition [31] of -5.3%. It also gave an inhibition [32] of 4.8%, an inhibition [33] of 4% and an inhibition [34] of 5.4%. For the same compound, the inhibition [35] was -9.9%, the inhibition [36] was 97.2% and the inhibition [37] was 13.2%. The inhibition [38] was 89.9% and the inhibition [39] was 2.7%.
